How the values were obtained:
[1] = tested on: LFP oscillations in the visual cortex; assay: In vivo electrophysiology: LFP power and 40 Hz entrainment in visual cortex; set-up: species or system mouse
Protocol: Next, it was aimed to understand how these treatments impacted the LFP oscillations and neuronal action potentials. First, in vivo awake animal electrophysiology was performed using high-density linear probes and verified whether 5×FAD mice with reduced microglia by Plx3397 treatment can entrain 40 Hz sensory stimulation. […] At the group level gamma stimulation increased gamma but not theta power as expected based on previous findings (2 W ANOVA, groups x frequency, F (1,6)=32.03, P=0.0013) (FIGS. 15A, 15B).
Mice were anaesthetized with isoflurane, restrained in a stereotactic apparatus and craniotomies were made exposing the visual cortex (AP: −3.2 & ML: +2.5). […] The reference electrode was targeted to the white matter tract above the hippocampus. Mice were allowed to recover for a period of 4 days.
Following a 2-3-day habitation period for the recording, recordings commenced with the animal allowed to move freely in their home cages. Data were acquired using Neuralynx SX system (Neuralynx, Bozeman, Mont., USA) and signals were sampled at 32,000 Hz. The position of animals was tracked using red light-emitting diodes affixed to the probes. At the conclusion of the experiment, mice underwent terminal anesthesia and electrode positions were marked by electrolytic lesioning of brain tissue with […] current for 10 s through each electrode individually, to confirm their anatomical location.
LFPs were first filtered to the Nyquist frequency of the target sampling rate then downsampled to 1000 Hz. Power spectral analyses were performed using the pwelch function in MATLAB using a 500 ms time window with a 50% overlap.
Mice were anaesthetized with isoflurane, restrained in a stereotactic apparatus and craniotomies were made exposing the visual cortex. Specifically, a 2×2 mm piece of skull was removed using a dental drill, which was above the V1 (stereotaxic 826 coordinates relative to bregma; AP −3.2; ML+2.5); during this entire procedure, the dura was kept intact and moist with saline. Following the skull removal from above both the right V1, two additional drilling holes above the frontal cortex were made and two skull screws were placed. […] The probe was grounded to skull screw above the cerebellum. Petroleum jelly (Vaseline, 100% white petrolatum) was gently applied on the cranial window without touching the probe/electrodes, which protected both the brain and probe/electrode. Next, the probe was further lowered and/or adjusted to reach the target depth. Finally, the probe was cemented on the skull with dental cements, first with a metabond (Parkell, C&B Metabond Quick Adhesive Cement System, #836 SKU:S380) followed by a dental cement from Steolting (#51459). Mice were allowed to recover for a period of 4 days.
Data analyses: LFPs were first filtered to the Nyquist frequency of the target sampling rate then down-sampled to 1000 Hz. Power spectral analyses were performed using the pwelch function in MATLAB using a 500 ms time window with a 50% overlap.
Time-frequency representation of LFP: The LFP data were down sampled to 1,000 Hz. For the calculation of the wavelet power spectrum, the continuous wavelet transforms (CWT) was applied to the LFP using complex Morlet wavelets returning amplitudes at 226 intervals between 1-100 Hz. CWT based wavelet power spectrum was shown in FIG. 21A, FIG. 26C, and FIG. 27C. For visualizing 40 Hz entrainment at finer frequency resolution, multitaper spectral analysis using Chronux toolbox was used.

[2] = tested on: excitatory neurons and interneurons of the visual cortex; assay: In vivo electrophysiology: single unit spiking and LFP phase locking; set-up: species or system mouse
Protocol: Next, principal component analyses was performed using action potential properties, isolated single units, and further separated them into excitatory and interneurons (FIG. 15A).
Single units were manually isolated by drawing cluster boundaries around the 3D projection of the recorded spikes, presented in SpikeSort3D software (Neuralynx).
The relationship between spike firing times and LFP gamma phase was calculated by mean resultant length using the Circular Statistics Toolbox. Briefly, spikes were sorted and LFP traces were filtered using the continuous wavelet transform returning the instantaneous signal phase and amplitudes. Spike times were linearly interpolated to determine phase, with peaks and troughs of gamma defined as 0 and ±pi radians respectively. The resulting phase values were binned to generate firing probabilities, for each 20-degree interval. […] All analyses were performed using MATLAB.
Spikes: Single units were manually isolated by drawing cluster boundaries around the 3D projection of the recorded spikes, presented in SpikeSort3D software (Neuralynx).
Single unit—LFP phase locking: The relationship between spike spiking times and LFP gamma phase was calculated by mean resultant length using the Circular Statistics Toolbox MATLAB File Exchange Function.
Briefly, spikes were sorted and LFP traces were filtered using the continuous wavelet transform returning the instantaneous signal phase and amplitudes. Spike times were linearly interpolated to determine phase, with peaks and troughs of gamma defined as 0 and ±pi radians respectively. The resulting phase values were binned to generate spiking probabilities, for each 20-degree interval. […] All analyses were performed using MATLAB. All in vivo electrophysiological analyses were conducted in MATLAB (Mathworks, #R2019a) utilizing signal processing and image processing toolboxes.

[3] = 5×FAD mice, Plx3397 diet 50 days vs control
[4] = Plx3397 treated 5×FAD mice, baseline
[5] = Plx3397 treated 5×FAD mice, during acute 40 Hz entrainment

## FC(F)(F)c1ccc(CNc2ccc(Cc3c[nH]c4ncc(Cl)cc34)cn2)cn1 [Plx3397, Pexidartinib]
[1]; 5×FAD mice with microglia reduced by Plx3397, awake recording
  entrainment of 40 Hz sensory stimulation: can indeed entrain 40 Hz
[1]; [3]
  LFP spectral power: no significant difference
[1]; 5×FAD mice, chronic Plx3397 administration
  time-resolved LFP gamma and theta power: elevated power of gamma and theta that occur incongruently
[1]; 5×FAD mice, untreated vs Plx3397 treated
  gamma response latency: comparable
[1]; Plx3397 administered 5×FAD mice, acute 40 Hz stimulation
  power of 40 Hz entrainment compared to control 5×FAD mice: higher
[1]; Plx3397 treated 5×FAD mice during acute 40 Hz visual stimulation
  aberrant theta-bursts: reduced
[2]; [3]
  overall mean spiking rate of E-neurons and I-neurons: no differences
[2]; 5×FAD mice, Plx3397 vs control
  % of E-neurons and I-neurons phase-locked to 3-12 Hz theta oscillations: reduction
  percentage of E-neurons and I-neurons phase-locked to 30-50 Hz gamma oscillations: less phase-locked
  strength of phase-locked neurons to gamma oscillations: without significant difference
  strength of theta phase-locking of neurons: increase
[2]; Plx3397 treated 5×FAD mice, acute 40 Hz entrainment, of the 47 I-neurons
  I-neurons showing 40 Hz entrainment: 13 neurons
[2]; [4]
  percentage of I-neurons phase-locked to gamma: 34.04%
  percentage of gamma phase-locked E-neurons: 35.64%
[2]; [5]
  percentage of I-neurons phase-locked to gamma: 65.95%
  percentage of gamma phase-locked E-neurons: 46.53%
[2]; Plx3397 treated 5×FAD mice, during acute 40 Hz entrainment vs baseline
  gamma phase-locking strength of E-neurons and I-neurons: enhanced
